Measurements from US8722937B2 (priority 2006, dated 2014).
≈ marks a conversion by molar mass, not a printed value. Like-named read-outs stand apart in the source and are kept apart here.

Experiments:
S. aureus (ATCC 25923) [1] = experiment: microbe, parasite or virus in culture; format: cell-based, Staphylococcus aureus; details: 24 h, 37° C.; for zone of inhibition at 20 µg/disc: Staphylococcus aureus, ATCC25923
[2] = molecular target: T1, FabH derived from E. coli (ecFabH) (Escherichia coli, UniProt P0A6R0); experiment: FabH enzyme assay (coupled trichloroacetic acid precipitation assay), ecFabH; format: biochemical; details: 15 min preincubation at 23° C.; duplicate assays; read-out: IC50 against ecFabH
T1 construct: polyhistidine (N); made in house; host or cells: E. coli
T1 sequence (P0A6R0 1-317): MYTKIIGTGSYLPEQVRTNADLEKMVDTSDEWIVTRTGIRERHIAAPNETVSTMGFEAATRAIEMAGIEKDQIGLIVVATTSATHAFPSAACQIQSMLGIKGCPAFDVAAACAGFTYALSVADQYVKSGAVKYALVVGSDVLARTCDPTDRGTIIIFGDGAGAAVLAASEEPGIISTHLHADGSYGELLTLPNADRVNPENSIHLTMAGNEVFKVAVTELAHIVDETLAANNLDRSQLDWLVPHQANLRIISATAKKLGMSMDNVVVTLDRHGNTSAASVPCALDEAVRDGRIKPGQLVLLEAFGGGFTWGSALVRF

[3] = molecular target: FabH derived from M. tuberculosis (mtFabH) (Mycobacterium tuberculosis, UniProt P9WNG3); details: read-out: IC50 against mtFabH
B. anthracis (USF 848) [4] = experiment: microbe, parasite or virus in culture; format: cell-based, Bacillus anthracis; details: 24 h, 37° C.; for zone of inhibition at 20 µg/disc: Bacillus anthracis, read-out: Zones of growth inhibition of B. anthracis (USF 848), areas of partial growth inhibition
S. aureus (ATCC 25923) [5] = experiment: Agar dilution minimum inhibitory concentration (MIC), S. aureus; format: cell-based, Staphylococcus aureus; details: serial dilution in 24-well plate, NCCLS; for MIC: Staphylococcus aureus, ATCC25923, read-out: Minimum inhibitory concentration (MIC) against S. aureus (ATCC 25923)
B. anthracis (USF 848) [6] = experiment: microbe, parasite or virus in culture; format: cell-based, Bacillus anthracis
[7] = test system: E. coli (K12; ATCC 23590); experiment: Kirby-Bauer zones of inhibition, E. coli; format: cell-based, Escherichia coli; details: full or partial not stated
[8] = test system: methicillin-resistant S. aureus (MRSA); experiment: microbe, parasite or virus in culture; format: cell-based, Staphylococcus aureus; details: 24 h, 37° C.
[9] = read-out: Zones of growth inhibition of S. aureus (ATCC 25923), areas of partial inhibition
[10] = read-out: Zones of growth inhibition of S. aureus (ATCC 25923)

Chain of FabH derived from M. tuberculosis (mtFabH) (P9WNG3 whole entry): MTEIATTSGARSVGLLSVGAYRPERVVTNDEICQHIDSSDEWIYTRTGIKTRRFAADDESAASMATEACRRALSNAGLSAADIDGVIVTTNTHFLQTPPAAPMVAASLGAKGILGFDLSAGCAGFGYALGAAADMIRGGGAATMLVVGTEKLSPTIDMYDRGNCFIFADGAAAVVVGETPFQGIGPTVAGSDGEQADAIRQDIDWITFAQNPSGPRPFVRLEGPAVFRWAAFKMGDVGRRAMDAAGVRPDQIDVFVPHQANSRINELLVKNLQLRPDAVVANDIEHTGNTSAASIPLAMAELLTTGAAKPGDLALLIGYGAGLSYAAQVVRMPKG

Cc1ccc(SSC(C)C)cc1C [Compound 35c, 3,4-Dimethylphenyl Isopropyl Disulfide]
zone of inhibition at 20 µg/disc (S. aureus (ATCC 25923) [1]; [9]): 9 mm

CCC(C)SSc1ccc(C)c(C)c1 (stereo not shown) [Compound 35d, sec-Butyl 3,4-dimethylphenyl Disulfide]
zone of inhibition at 20 µg/disc (S. aureus (ATCC 25923) [1]; [10]): 0 mm

CCCCSSCCNC(=O)CCNC(=O)[C@H](O)C(C)(C)COP(=O)(O)OP(=O)(O)OC[C@H]1O[C@@H](n2cnc3c(N)ncnc32)[C@H](O)[C@@H]1OP(=O)(O)O [Compound 25d]
IC50 [2]: > 300 µM
IC50 [3]: > 300 µM

CCSSc1ccc(C)c(C)c1 [Compound 35b, 3,4-Dimethylphenyl ethyl disulfide]
zone of inhibition at 20 µg/disc (S. aureus (ATCC 25923) [1]; [10]): 0 mm

CCSSc1ccccn1 [Compound 42b, Ethyl 2-pyridinyl Disulfide]
zone of inhibition at 20 µg/disc (B. anthracis (USF 848) [4]): 27 mm
MIC (S. aureus (ATCC 25923) [5]): 32 µg/mL (≈ 187 µM)
activity against S. aureus (ATCC 25923) in Kirby-Bauer assay, in words (S. aureus (ATCC 25923) [1]): some activity
zone of inhibition at 20 µg/disc (S. aureus (ATCC 25923) [1]; [9]): 21 mm

CSSc1ccccc1CO [Compound 41a, o-(Hydroxymethyl)phenyl Methyl Disulfide]
MIC (S. aureus (ATCC 25923) [5]): 64 µg/mL (≈ 344 µM)
zone of inhibition at 20 µg/disc (S. aureus (ATCC 25923) [1]; [9]): 14 mm

CCCCSSc1ccccc1Cl [Compound 34f, n-Butyl o-chlorophenyl Disulfide]
zone of inhibition at 20 µg/disc (S. aureus (ATCC 25923) [1]; [9]): 9 mm

CCC(C)SSc1ccc(F)c(F)c1 (stereo not shown) [Compound 33d, Sec-Butyl 3,4-Difluorophenyl Disulfide]
zone of inhibition at 20 µg/disc (S. aureus (ATCC 25923) [1]; [9]): 9 mm

CCSSc1ccccc1[N+](=O)[O-] [Compound 44b]
Zones of growth inhibition of B. anthracis (USF 848) (B. anthracis (USF 848) [4]): 35 mm
Minimum inhibitory concentration (MIC) against B. anthracis (USF 848) (B. anthracis (USF 848) [6]): 0.63 µg/mL (≈ 2.93 µM)
Minimum inhibitory concentration (MIC) against S. aureus (ATCC 25923) (S. aureus (ATCC 25923) [5]): 16 µg/mL (≈ 74.3 µM)
Zones of growth inhibition of S. aureus (ATCC 25923) (S. aureus (ATCC 25923) [1]): 29(40) mm
Zones of growth inhibition of S. aureus (ATCC 25923), areas of partial inhibition (S. aureus (ATCC 25923) [1]): 29(40) mm

CSSc1ccccn1 [Compound 42a, Methyl 2-pyridinyl Disulfide]
MIC (S. aureus (ATCC 25923) [5]): 64 µg/mL (≈ 407 µM)
activity against S. aureus (ATCC 25923) in Kirby-Bauer assay, in words (S. aureus (ATCC 25923) [1]): some activity
zone of inhibition at 20 µg/disc (S. aureus (ATCC 25923) [1]; [10]): 16 mm
zone of inhibition at 20 µg/disc (S. aureus (ATCC 25923) [1]; [9]): 23 mm

CCSSc1ccc(F)c(F)c1 [Compound 33b, 3,4-Difluorophenyl Ethyl Disulfide]
zone of inhibition at 20 µg/disc (S. aureus (ATCC 25923) [1]; [9]): 9 mm

CCC(C)SSc1ccccn1 (stereo not shown) [Compound 42d, s-Butyl 2-pyridinyl Disulfide]
zone of inhibition at 20 µg/disc (B. anthracis (USF 848) [4]): 17 mm
zone of inhibition at 20 µg/disc (S. aureus (ATCC 25923) [1]; [10]): 0 mm

CC(C)SSc1ccccn1 [Compound 42c, Isopropyl 2-pyridinyl Disulfide]
zone of inhibition at 20 µg/disc (B. anthracis (USF 848) [4]): 16 mm
zone of inhibition at 20 µg/disc (S. aureus (ATCC 25923) [1]; [10]): 0 mm

CSSc1ccccc1[N+](=O)[O-] [Compound 44a, Methyl o-nitrophenyl Methyl Disulfide]
Zones of growth inhibition of B. anthracis (USF 848) (B. anthracis (USF 848) [4]): 31 mm
zone of inhibition against E. coli [7]: 9 mm
Minimum inhibitory concentration (MIC) against B. anthracis (USF 848) (B. anthracis (USF 848) [6]): 4 µg/mL (≈ 19.9 µM)
Average zones of growth inhibition of MRSA (USF-652-659, 919-920) [8]: 26 mm
Minimum inhibitory concentration (MIC) against S. aureus (ATCC 25923) (S. aureus (ATCC 25923) [5]): 64 µg/mL (≈ 318 µM)
Zones of growth inhibition of S. aureus (ATCC 25923) (S. aureus (ATCC 25923) [1]): 34(37) mm
Zones of growth inhibition of S. aureus (ATCC 25923), areas of partial inhibition (S. aureus (ATCC 25923) [1]): 34(37) mm

CSSc1ccc(C)c(C)c1 [Compound 35a, 3,4-Dimethylphenyl Methyl Disulfide]
zone of inhibition at 20 µg/disc (S. aureus (ATCC 25923) [1]; [9]): 10 mm

CCCCSSc1ccc(F)c(F)c1 [Compound 33f, n-Butyl 3,4-difluorophenyl Disulfide]
zone of inhibition at 20 µg/disc (S. aureus (ATCC 25923) [1]; [9]): 10 mm

CSS(C)(=O)=O [Compound 26a, reference compound]
Zones of growth inhibition, MRSA [8]: 23 mm
Zones of growth inhibition, S. aureus (S. aureus (ATCC 25923) [1]): 22 mm

CSSc1ccc(NC(C)=O)cc1 [Compound 46a, p-Acetamidophenyl Methyl Disulfide]
zone of inhibition at 20 µg/disc (B. anthracis (USF 848) [4]): 23 mm
MIC (B. anthracis (USF 848) [6]; Bacillus anthracis, read-out: Minimum inhibitory concentration (MIC) against B. anthracis (USF 848)): 8 µg/mL (≈ 37.5 µM)
zone of inhibition at 20 µg/disc (S. aureus (ATCC 25923) [1]; [9]): 20 mm

CCC(C)SS(C)(=O)=O (stereo not shown) [Compound 26c]
Zones of growth inhibition, MRSA [8]: 23 mm
Zones of growth inhibition, S. aureus (S. aureus (ATCC 25923) [1]): 23 mm
